From patent publication US20120034193A1, “TREATMENT OF NEUROTROPHIC FACTOR MEDIATED DISORDERS” (priority 2009, published 2012)

Experiments:
Test in all cases: Binding assay
Details in all cases: smilagenin 1 μM
Histamine H1 = molecular target: T1, Histamine H1 (Homo sapiens, UniProt P35367)
T1 construct: host or cells: tissue or cell homogenate (not specified)
Protocol: (§1) The receptor binding was investigated using the following method: Sarsasapogenin was incubated with tissue or cell homogenate that expressed the receptor of interest and a known concentration a radiolabelled compound with affinity for the receptor of interest. After the incubation period the non-bound radiolabelled compound was removed and the amount of specific binding was quantified. The amount of specific binding in the presence and absence of sarsasapogenin were compared and the percent inhibition of the binding of the radiolabelled compound by sarsasapogenin was calculated. The source of the receptor, the incubation conditions, the radiolabelled compound used varied depending on each specific assay.
(§2) Using the same methods as described above, the binding of smilagenin (1 μM) to the receptors listed in Table 2 below, and the effect of smilagenin on the activity of the enzymes listed in Table 2 below, were investigated.

Endothelin ETB = Endothelin ETB (Homo sapiens, UniProt P24530)
Protocol: as §1, §2

Histamine H4 = Histamine H4 (Homo sapiens, UniProt Q9H3N8)
Protocol: as §1, §2

Retanoid X Receptor RXRα = Retanoid X Receptor RXRα (Homo sapiens, UniProt P19793)
Protocol: as §1, §2

Tachykinin NK3 = Tachykinin NK3 (Homo sapiens, UniProt P29371)
Protocol: as §1, §2

Insulin = Insulin (Rattus norvegicus, UniProt P15127)
Protocol: as §1, §2

Somatostatin sstl = Somatostatin sstl (Homo sapiens, UniProt P30872)
Somatostatin sstl, sequence (P30872 whole entry): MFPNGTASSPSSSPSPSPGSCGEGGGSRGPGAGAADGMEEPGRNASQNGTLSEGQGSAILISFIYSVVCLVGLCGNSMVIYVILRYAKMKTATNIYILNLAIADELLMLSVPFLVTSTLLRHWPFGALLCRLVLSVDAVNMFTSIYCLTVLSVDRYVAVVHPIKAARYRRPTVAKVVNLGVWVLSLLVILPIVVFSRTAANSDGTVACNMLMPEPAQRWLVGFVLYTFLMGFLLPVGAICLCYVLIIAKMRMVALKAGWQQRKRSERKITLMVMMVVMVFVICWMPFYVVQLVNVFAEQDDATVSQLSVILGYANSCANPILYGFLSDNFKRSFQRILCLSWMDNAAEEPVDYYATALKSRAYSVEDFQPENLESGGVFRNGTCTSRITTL
Protocol: as §1, §2

Adensonine A3 = Adensonine A3 (Homo sapiens, UniProt P0DMS8)
Protocol: as §1, §2

Galanin GAL2 = molecular target: T2, Galanin GAL2 (Homo sapiens, UniProt O43603)
T2 construct: host or cells: tissue or cell homogenate (not specified)
T2 sequence (O43603 whole entry): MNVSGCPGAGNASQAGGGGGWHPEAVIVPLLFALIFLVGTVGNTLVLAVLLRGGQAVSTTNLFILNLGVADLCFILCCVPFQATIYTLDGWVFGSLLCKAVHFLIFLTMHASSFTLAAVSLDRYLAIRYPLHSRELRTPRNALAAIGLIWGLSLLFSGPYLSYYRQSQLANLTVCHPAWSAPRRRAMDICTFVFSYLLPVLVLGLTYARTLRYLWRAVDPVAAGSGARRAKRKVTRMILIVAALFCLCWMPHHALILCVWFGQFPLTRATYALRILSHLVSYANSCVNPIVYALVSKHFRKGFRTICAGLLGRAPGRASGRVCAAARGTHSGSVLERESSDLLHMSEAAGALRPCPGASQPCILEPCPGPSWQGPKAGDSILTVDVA
Protocol: as §1, §2

Melanocortin MC5 = Melanocortin MC5 (Homo sapiens, UniProt P33032)
Melanocortin MC5, sequence (P33032 whole entry): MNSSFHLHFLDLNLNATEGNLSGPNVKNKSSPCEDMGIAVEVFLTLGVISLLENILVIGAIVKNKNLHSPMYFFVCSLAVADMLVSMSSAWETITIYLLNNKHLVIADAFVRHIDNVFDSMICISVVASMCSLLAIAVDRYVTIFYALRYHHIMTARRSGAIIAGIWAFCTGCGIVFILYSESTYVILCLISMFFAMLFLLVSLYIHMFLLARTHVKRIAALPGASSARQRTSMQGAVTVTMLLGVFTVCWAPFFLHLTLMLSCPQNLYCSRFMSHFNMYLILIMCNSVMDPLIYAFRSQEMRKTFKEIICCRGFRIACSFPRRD
Protocol: as §1, §2

Muscarinic M1 = molecular target: T3, Muscarinic M1 (Homo sapiens, UniProt P11229)
T3 construct: host or cells: tissue or cell homogenate, not specified
Protocol: as §1, §2

Adensonine A2A = Adensonine A2A (Homo sapiens, UniProt P29274)
Adensonine A2A, sequence (P29274 whole entry): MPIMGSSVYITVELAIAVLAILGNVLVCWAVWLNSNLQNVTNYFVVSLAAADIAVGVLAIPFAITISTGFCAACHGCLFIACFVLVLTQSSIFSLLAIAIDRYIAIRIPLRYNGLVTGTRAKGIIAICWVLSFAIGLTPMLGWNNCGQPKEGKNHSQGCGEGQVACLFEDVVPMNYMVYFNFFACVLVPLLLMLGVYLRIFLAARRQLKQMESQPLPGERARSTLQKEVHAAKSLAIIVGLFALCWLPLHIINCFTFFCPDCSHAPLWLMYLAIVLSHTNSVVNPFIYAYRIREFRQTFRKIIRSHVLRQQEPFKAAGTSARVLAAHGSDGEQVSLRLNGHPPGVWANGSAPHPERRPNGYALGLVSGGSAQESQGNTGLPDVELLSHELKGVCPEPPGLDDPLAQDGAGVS
Protocol: as §1, §2

Adrenergic α2A = Adrenergic α2A (Homo sapiens, UniProt P08913)
Adrenergic α2A, sequence (P08913 whole entry): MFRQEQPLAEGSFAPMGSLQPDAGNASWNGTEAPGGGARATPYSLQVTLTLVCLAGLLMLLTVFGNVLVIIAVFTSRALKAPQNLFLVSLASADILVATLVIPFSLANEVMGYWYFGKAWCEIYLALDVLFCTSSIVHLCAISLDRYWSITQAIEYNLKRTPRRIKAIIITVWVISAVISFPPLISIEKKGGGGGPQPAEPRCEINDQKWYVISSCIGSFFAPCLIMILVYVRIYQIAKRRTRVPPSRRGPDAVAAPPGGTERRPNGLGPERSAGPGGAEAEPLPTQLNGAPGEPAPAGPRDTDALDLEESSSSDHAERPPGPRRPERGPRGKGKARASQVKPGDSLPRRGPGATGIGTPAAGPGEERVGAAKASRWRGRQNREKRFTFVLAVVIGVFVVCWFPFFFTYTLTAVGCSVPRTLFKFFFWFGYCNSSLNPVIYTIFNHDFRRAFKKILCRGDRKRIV
Protocol: as §1, §2

Calcium Channel N-Type = Calcium Channel N-Type (Rattus norvegicus, UniProt Q02294)
Protocol: as §1, §2

[1] = molecular target: Corticotropin Releasing Factor (CRF1) (Homo sapiens, UniProt P34998)
Protocol: as §1, §2

Prostanoid DP = Prostanoid DP (Homo sapiens, UniProt Q13258)
Protocol: as §1, §2

Anaphylatoxin C5a = Anaphylatoxin C5a (Homo sapiens, UniProt P21730)
Protocol: as §1, §2

Galanin GAL1 = molecular target: T4, Galanin GAL1 (Homo sapiens, UniProt P47211)
T4 construct: host or cells: tissue or cell homogenate (not specified)
Protocol: as §1, §2

Melatonin MT1 = Melatonin MT1 (Homo sapiens, UniProt P48039)
Melatonin MT1, sequence (P48039 whole entry): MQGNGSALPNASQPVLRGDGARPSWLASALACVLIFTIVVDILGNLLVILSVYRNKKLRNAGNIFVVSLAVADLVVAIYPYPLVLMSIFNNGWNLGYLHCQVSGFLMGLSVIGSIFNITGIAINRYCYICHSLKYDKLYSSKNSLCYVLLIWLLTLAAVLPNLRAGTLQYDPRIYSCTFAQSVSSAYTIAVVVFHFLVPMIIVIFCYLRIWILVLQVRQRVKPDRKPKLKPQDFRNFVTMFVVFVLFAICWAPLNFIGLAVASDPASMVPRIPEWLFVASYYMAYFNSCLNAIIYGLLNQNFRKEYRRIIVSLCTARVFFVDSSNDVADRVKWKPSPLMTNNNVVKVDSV
Protocol: as §1, §2

Neurotensin NT1 = Neurotensin NT1 (Homo sapiens, UniProt P30989)
Neurotensin NT1, sequence (P30989 whole entry): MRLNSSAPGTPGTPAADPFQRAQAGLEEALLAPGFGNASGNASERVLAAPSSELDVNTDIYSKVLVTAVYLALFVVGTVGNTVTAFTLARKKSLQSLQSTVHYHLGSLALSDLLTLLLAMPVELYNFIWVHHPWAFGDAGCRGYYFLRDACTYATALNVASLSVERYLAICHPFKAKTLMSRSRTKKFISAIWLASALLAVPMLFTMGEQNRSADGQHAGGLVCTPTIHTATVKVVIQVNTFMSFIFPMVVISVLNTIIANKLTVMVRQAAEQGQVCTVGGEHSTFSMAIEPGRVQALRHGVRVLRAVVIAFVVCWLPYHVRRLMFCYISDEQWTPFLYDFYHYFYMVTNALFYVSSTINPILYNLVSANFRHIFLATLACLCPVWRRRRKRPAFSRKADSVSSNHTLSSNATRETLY
Protocol: as §1, §2

[2] = molecular target: N-Formyl Peptide Receptor-Like FPRL1 (Homo sapiens, UniProt P25090)
N-Formyl Peptide Receptor-Like FPRL1, sequence (P25090 whole entry): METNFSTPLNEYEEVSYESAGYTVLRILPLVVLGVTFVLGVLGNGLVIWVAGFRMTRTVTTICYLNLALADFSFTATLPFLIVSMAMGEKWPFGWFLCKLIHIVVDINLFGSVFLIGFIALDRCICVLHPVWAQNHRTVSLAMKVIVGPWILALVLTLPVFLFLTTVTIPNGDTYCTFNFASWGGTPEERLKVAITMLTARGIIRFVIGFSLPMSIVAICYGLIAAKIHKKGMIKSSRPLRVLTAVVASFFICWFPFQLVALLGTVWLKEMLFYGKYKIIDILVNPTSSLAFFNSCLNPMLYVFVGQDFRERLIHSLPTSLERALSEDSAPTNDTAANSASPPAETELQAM
Protocol: as §1, §2

[3] = molecular target: T5, G Protein-Coupled Receptor GPR8 (Homo sapiens, UniProt P48146)
T5 construct: host or cells: tissue or cell homogenate (not specified)
Protocol: as §1, §2

Oestrogen (ERα) = molecular target: T6, Oestrogen (ERα) (Homo sapiens, UniProt P03372)
T6 construct: host or cells: tissue or cell homogenate (not specified)
Protocol: as §1, §2

Chemokine CXCR1 (IL-8RB) = Chemokine CXCR1 (IL-8RB) (Homo sapiens, UniProt P25025)
Protocol: as §1, §2

Aldosterone = Aldosterone (Rattus norvegicus, UniProt P22199)
Protocol: as §1, §2

Colchicine = system: Colchicine
Protocol: as §1, §2

Adrenergic β1 = Adrenergic β1 (Homo sapiens, UniProt P08588)
Adrenergic β1, sequence (P08588 whole entry): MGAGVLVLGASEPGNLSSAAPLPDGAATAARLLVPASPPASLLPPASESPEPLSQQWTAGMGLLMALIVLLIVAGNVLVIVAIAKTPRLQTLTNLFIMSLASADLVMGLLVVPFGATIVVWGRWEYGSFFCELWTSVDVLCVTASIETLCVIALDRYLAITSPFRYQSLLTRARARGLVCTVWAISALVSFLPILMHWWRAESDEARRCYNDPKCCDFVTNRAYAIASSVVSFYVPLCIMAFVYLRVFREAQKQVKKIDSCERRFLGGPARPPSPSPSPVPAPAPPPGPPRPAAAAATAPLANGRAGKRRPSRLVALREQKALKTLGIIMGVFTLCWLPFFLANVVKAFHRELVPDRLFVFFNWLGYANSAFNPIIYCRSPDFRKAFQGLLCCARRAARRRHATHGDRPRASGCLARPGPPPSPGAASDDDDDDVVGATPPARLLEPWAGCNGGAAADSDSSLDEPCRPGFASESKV
Protocol: as §1, §2

Neuropeptide Y Y1 = Neuropeptide Y Y1 (Homo sapiens, UniProt P25929)
Neuropeptide Y Y1, sequence (P25929 whole entry): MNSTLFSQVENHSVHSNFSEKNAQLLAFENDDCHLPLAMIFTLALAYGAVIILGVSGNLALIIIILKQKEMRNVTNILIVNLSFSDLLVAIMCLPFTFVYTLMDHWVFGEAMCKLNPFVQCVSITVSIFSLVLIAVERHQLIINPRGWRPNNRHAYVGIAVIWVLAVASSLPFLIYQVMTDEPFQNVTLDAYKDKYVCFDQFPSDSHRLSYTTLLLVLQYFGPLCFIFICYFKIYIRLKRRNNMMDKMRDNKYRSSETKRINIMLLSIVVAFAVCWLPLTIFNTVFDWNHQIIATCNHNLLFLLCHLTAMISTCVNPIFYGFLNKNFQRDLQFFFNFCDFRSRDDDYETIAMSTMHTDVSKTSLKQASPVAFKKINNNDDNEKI
Protocol: as §1, §2

Oestrogen (Erβ) = molecular target: T7, Oestrogen (Erβ) (Homo sapiens, UniProt Q92731)
T7 construct: host or cells: tissue or cell homogenate (not specified)
T7 sequence (Q92731 whole entry): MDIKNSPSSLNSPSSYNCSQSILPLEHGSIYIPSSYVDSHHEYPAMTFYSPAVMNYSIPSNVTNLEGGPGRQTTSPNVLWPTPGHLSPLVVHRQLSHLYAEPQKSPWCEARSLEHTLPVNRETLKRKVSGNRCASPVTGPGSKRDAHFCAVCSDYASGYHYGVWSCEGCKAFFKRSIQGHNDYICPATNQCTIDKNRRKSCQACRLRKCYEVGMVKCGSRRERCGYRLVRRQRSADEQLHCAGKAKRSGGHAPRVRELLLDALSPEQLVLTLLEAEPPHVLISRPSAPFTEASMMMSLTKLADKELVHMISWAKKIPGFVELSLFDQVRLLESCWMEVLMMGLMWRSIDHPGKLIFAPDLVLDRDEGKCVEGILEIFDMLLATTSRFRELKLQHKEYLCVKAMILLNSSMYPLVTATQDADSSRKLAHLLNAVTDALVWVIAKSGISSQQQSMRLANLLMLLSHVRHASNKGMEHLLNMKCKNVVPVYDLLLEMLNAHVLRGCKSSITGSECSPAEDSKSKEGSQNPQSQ
Protocol: as §1, §2

[4] = molecular target: Platelet Activating Factor (PAF) (Homo sapiens, UniProt P25105)
Protocol: as §1, §2

[5] = molecular target: Transporter, Dopamine (DAT) (Homo sapiens, UniProt Q01959)
Protocol: as §1, §2

Bombesin BB1 = Bombesin BB1 (Homo sapiens, UniProt P28336)
Bombesin BB1, sequence (P28336 whole entry): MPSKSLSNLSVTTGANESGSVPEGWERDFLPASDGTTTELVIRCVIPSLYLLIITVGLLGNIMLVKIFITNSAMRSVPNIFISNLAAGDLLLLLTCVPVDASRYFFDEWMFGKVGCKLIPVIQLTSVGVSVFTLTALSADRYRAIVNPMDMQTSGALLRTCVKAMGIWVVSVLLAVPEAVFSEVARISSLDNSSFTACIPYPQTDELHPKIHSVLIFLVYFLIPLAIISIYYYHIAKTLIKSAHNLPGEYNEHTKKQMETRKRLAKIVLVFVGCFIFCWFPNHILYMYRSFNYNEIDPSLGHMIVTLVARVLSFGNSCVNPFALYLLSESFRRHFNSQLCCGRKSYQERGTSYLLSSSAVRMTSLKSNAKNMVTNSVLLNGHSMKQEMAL
Protocol: as §1, §2

[6] = molecular target: 5-Hydroxytryptamine, 5-HT5A (Homo sapiens, UniProt P47898)
Protocol: as §1, §2

Potassium Channel [KATP] = system: Potassium Channel [KATP]
Protocol: as §1, §2

Adrenergic α1D = Adrenergic α1D (Homo sapiens, UniProt P25100)
Protocol: as §1, §2

Neuromedin U MNU1 = Neuromedin U MNU1 (Homo sapiens, UniProt Q9HB89)
Protocol: as §1, §2

Prostanoid CRTH2 = Prostanoid CRTH2 (Homo sapiens, UniProt Q9Y5Y4)
Protocol: as §1, §2

## C[C@@H]1CC[C@@]2(OC1)O[C@H]1C[C@H]3[C@@H]4CC[C@@H]5C[C@@H](O)CC[C@]5(C)[C@H]4CC[C@]3(C)[C@H]1[C@@H]2C [Smilagenin, smilagenin]
Histamine H1
  Effect (%): NS (NS = No significant response. Significance was taken as ≧30% stimulation or inhibition)
Endothelin ETB
  Effect (%): NS (NS = No significant response. Significance was taken as ≧30% stimulation or inhibition)
Histamine H4
  Effect (%): NS (NS = No significant response. Significance was taken as ≧30% stimulation or inhibition)
Retanoid X Receptor RXRα
  Effect (%): NS (NS = No significant response. Significance was taken as ≧30% stimulation or inhibition)
Tachykinin NK3
  Effect (%): NS (NS = No significant response. Significance was taken as ≧30% stimulation or inhibition)
Insulin
  Effect (%): NS (NS = No significant response. Significance was taken as ≧30% stimulation or inhibition)
Somatostatin sstl
  Effect (%): NS (NS = No significant response. Significance was taken as ≧30% stimulation or inhibition)
Adensonine A3
  Effect (%): NS (NS = No significant response. Significance was taken as ≧30% stimulation or inhibition)
Galanin GAL2
  Effect (%): NS (NS = No significant response. Significance was taken as ≧30% stimulation or inhibition)
Melanocortin MC5
  Effect (%): NS (NS = No significant response. Significance was taken as ≧30% stimulation or inhibition)
Muscarinic M1
  Effect (%): NS (NS = No significant response. Significance was taken as ≧30% stimulation or inhibition)
Adensonine A2A
  Effect (%): NS (NS = No significant response. Significance was taken as ≧30% stimulation or inhibition)
Adrenergic α2A
  Effect (%): NS (NS = No significant response. Significance was taken as ≧30% stimulation or inhibition)
Calcium Channel N-Type
  Effect (%): NS (NS = No significant response. Significance was taken as ≧30% stimulation or inhibition)
[1]
  Effect (%): NS (NS = No significant response. Significance was taken as ≧30% stimulation or inhibition)
Prostanoid DP
  Effect (%): NS (NS = No significant response. Significance was taken as ≧30% stimulation or inhibition)
Anaphylatoxin C5a
  Effect (%): NS (NS = No significant response. Significance was taken as ≧30% stimulation or inhibition)
Galanin GAL1
  Effect (%): NS (NS = No significant response. Significance was taken as ≧30% stimulation or inhibition)
Melatonin MT1
  Effect (%): NS (NS = No significant response. Significance was taken as ≧30% stimulation or inhibition)
Neurotensin NT1
  Effect (%): NS (NS = No significant response. Significance was taken as ≧30% stimulation or inhibition)
[2]
  Effect (%): NS (NS = No significant response. Significance was taken as ≧30% stimulation or inhibition)
[3]
  Effect (%): NS (NS = No significant response. Significance was taken as ≧30% stimulation or inhibition)
Oestrogen (ERα)
  Effect (%): NS (NS = No significant response. Significance was taken as ≧30% stimulation or inhibition)
Chemokine CXCR1 (IL-8RB)
  Effect (%): NS (NS = No significant response. Significance was taken as ≧30% stimulation or inhibition)
Aldosterone
  Effect (%): NS (NS = No significant response. Significance was taken as ≧30% stimulation or inhibition)
Colchicine
  Effect (%): NS (NS = No significant response. Significance was taken as ≧30% stimulation or inhibition)
Adrenergic β1
  Effect (%): NS (NS = No significant response. Significance was taken as ≧30% stimulation or inhibition)
Neuropeptide Y Y1
  Effect (%): NS (NS = No significant response. Significance was taken as ≧30% stimulation or inhibition)
Oestrogen (Erβ)
  Effect (%): NS (NS = No significant response. Significance was taken as ≧30% stimulation or inhibition)
[4]
  Effect (%): NS (NS = No significant response. Significance was taken as ≧30% stimulation or inhibition)
[5]
  Effect (%): NS (NS = No significant response. Significance was taken as ≧30% stimulation or inhibition)
Bombesin BB1
  Effect (%): NS (NS = No significant response. Significance was taken as ≧30% stimulation or inhibition)
[6]
  Effect (%): NS (NS = No significant response. Significance was taken as ≧30% stimulation or inhibition)
Potassium Channel [KATP]
  Effect (%): NS (NS = No significant response. Significance was taken as ≧30% stimulation or inhibition)
Adrenergic α1D
  Effect (%): NS (NS = No significant response. Significance was taken as ≧30% stimulation or inhibition)
Neuromedin U MNU1
  Effect (%): NS (NS = No significant response. Significance was taken as ≧30% stimulation or inhibition)
Prostanoid CRTH2
  Effect (%): NS (NS = No significant response. Significance was taken as ≧30% stimulation or inhibition)
